Measurements: DBAASP
Converted amounts (≈) assume the structure as drawn. Values belong to the molecule of their own block, whether it stands above or below them.

Legend:
Assay in all cases: ≥ marks a high value that may be exact or a test limit, other limits are often not marked, values filed in µg/mL are converted to µM
Bacillus cereus AS1.126 = tested on: Bacillus cereus AS1.126
[1] = tested on: Pseudomonas aeruginosa CGMCC 1.860
[2] = tested on: Klebsiella pneumoniae subsp. pneumoniae CGMCC 1.176
Escherichia coli AS1.349 = tested on: Escherichia coli AS1.349
[3] = tested on: Klebsiella aerogenes CGMCC 1.876
[4] = tested on: Lactococcus lactis AS1.1690
[5] = tested on: Staphylococcus aureus AS1.72
[6] = tested on: Enterobacter cloacae CGMCC 1.58
[7] = tested on: Enterococcus faecium CGMCC 1.2334
[8] = tested on: Enterococcus faecalis CGMCC 1.595
[9] = tested on: Bacillus anthracis Sterne 34F2
[10] = tested on: Bacillus subtilis var. niger ATCC 9372
Escherichia coli K91BK = tested on: Escherichia coli K91BK
[11] = tested on: Micrococcus luteus ATCC 10240
Escherichia coli BL21AI = tested on: Escherichia coli BL21AI
[12] = tested on: Mycobacterium tuberculosis H37Rv
[13] = tested on: Streptococcus pneumoniae ATCC 49619
[14] = tested on: Staphylococcus aureus ATCC 6538P
Staphylococcus aureus = tested on: Staphylococcus aureus
Escherichia coli JM109 = tested on: Escherichia coli JM109
[15] = tested on: Escherichia coli ATCC 25922
[16] = tested on: Escherichia coli ATCC 43827
[17] = tested on: Pseudomonas aeruginosa ATCC 27853
[18] = tested on: Staphylococcus aureus ATCC 25923
[19] = tested on: Escherichia coli ATCC 11775
Proteus vulgaris = tested on: Proteus vulgaris
[20] = tested on: Trichosporon beigelii KCTC 7251
[21] = tested on: Bacillus subtilis KCTC 1918
[22] = tested on: Bacillus megaterium KCTC 1096
[23] = tested on: Escherichia coli KCTC 1682
[24] = tested on: Pseudomonas aeruginosa KCTC 1637
[25] = tested on: Aspergillus flavus KCTC 7375
[26] = tested on: Fusarium oxysporum KCTC 6084
[27] = tested on: Candida albicans KCTC 7121
[28] = tested on: Staphylococcus aureus KCTC 1621
[29] = tested on: Enterococcus faecalis ATCC 29212
[30] = tested on: Streptococcus pyogenes KCTC 3096
[31] = tested on: Salmonella typhimurium KCTC 1926

SMILES: NC(N)=NCCC[C@H](NC(=O)[C@H](CCCN=C(N)N)NC(=O)[C@H](Cc1c[nH]c2ccccc12)NC(=O)[C@H](Cc1ccccc1)NC(=O)[C@H](CCCN=C(N)N)NC(=O)[C@H](CCCN=C(N)N)NC(=O)[C@H](Cc1c[nH]c2ccccc12)NC(=O)[C@@H](N)CCCN=C(N)N)C(=O)O [RWRRFWRR]
MIC (Bacillus cereus AS1.126): 3.13 µM (≈ 4.13 µg/mL) | MIC [1]: 6.25 µM (≈ 8.24 µg/mL) | MIC [2]: ≥ 100 µM | MIC (Escherichia coli AS1.349): ≥ 50 µM | MIC [3]: ≥ 100 µM | MIC [4]: 6.25 µM (≈ 8.24 µg/mL) | MIC [5]: 6.25 µM (≈ 8.24 µg/mL) | MIC [6]: ≥ 100 µM | MIC [7]: 12.5 µM (≈ 16.5 µg/mL) | MIC [8]: 12.5 µM (≈ 16.5 µg/mL)

SMILES: CC[C@H](C)[C@H](NC(=O)CNC(C)=O)C(=O)NCC(=O)N[C@@H](CCCCN)C(=O)N[C@@H](Cc1ccccc1)C(=O)N[C@@H](CC(C)C)C(=O)N[C@@H](CCCCN)C(=O)N[C@@H](CCCCN)C(=O)N[C@@H](C)C(=O)N[C@@H](CCCCN)C(=O)N[C@@H](CCCCN)C(=O)N[C@@H](Cc1ccccc1)C(=O)NCC(=O)N[C@@H](CCCCN)C(=O)N[C@@H](C)C(=O)N[C@@H](Cc1ccccc1)C(=O)N[C@H](C(=O)N[C@@H](CCCCN)C(=O)N[C@H](C(=O)N[C@@H](CC(C)C)C(=O)N[C@@H](CCCCN)C(=O)N[C@@H](CCCCN)C(N)=O)[C@@H](C)CC)C(C)C [GIGKFLKKAKKFGKAFVKILKK]
MIC [9]: 25 µM (≈ 63 µg/mL) | MIC [10]: 1.56 µM (≈ 3.93 µg/mL) | MIC (Escherichia coli K91BK): ≥ 100 µM

SMILES: CC(=O)N[C@@H](CCCCN)C(=O)N[C@@H](CC(C)C)C(=O)N[C@@H](Cc1c[nH]c2ccccc12)C(=O)N[C@@H](CCCCN)C(=O)N[C@@H](CCCCN)C(=O)N[C@@H](Cc1c[nH]c2ccccc12)C(=O)N[C@@H](CCCCN)C(=O)N[C@@H](CCCCN)C(=O)N[C@@H](Cc1c[nH]c2ccccc12)C(=O)N[C@@H](CCCCN)C(=O)N[C@@H](CCCCN)C(N)=O [KLWKKWKKWKK]
MIC [9]: ≥ 100 µM | MIC [10]: 25 µM (≈ 40.7 µg/mL) | MIC (Escherichia coli K91BK): ≥ 100 µM

SMILES: CC[C@H](C)[C@H](NC(=O)[C@H](CCCN=C(N)N)NC(=O)[C@@H]1CCCN1C(=O)[C@H](Cc1cnc[nH]1)NC(=O)[C@@H]1CCCN1C(=O)[C@@H]1CCCN1C(=O)[C@H](CCCN=C(N)N)NC(=O)[C@@H]1CCCN1C(=O)[C@H](CCC(N)=O)NC(=O)[C@@H]1CCCN1C(=O)[C@@H](NC(=O)[C@H](Cc1ccc(O)cc1)NC(=O)[C@@H](NC(=O)[C@@H]1CCCN1C(=O)[C@H](CCCN=C(N)N)NC(=O)[C@H](CC(N)=O)NC(=O)[C@@H](N)CC(N)=O)C(C)C)[C@@H](C)CC)C(N)=O [NNRPVYIPQPRPPHPRI]
MIC [11]: 15.2 µM (≈ 31.2 µg/mL) | MIC (Escherichia coli BL21AI): 1.91 µM (≈ 3.91 µg/mL)

SMILES: NCCCC[C@H](NC(=O)CNC(=O)CNC(=O)[C@H](CCCCN)NC(=O)[C@H](CCCCN)NC(=O)[C@H](Cc1cnc[nH]1)NC(=O)[C@H](CS)NC(=O)[C@H](CCC(N)=O)NC(=O)[C@H](CCCCN)NC(=O)[C@@H](N)Cc1ccc(O)cc1)C(=O)N[C@@H](CCCCN)C(=O)NCC(=O)N[C@@H](CO)C(=O)NCC(N)=O [YKQCHKKGGKKGSG]
MIC [12]: ≥ 300 µM | MIC [13]: ≥ 300 µM

SMILES: CC[C@H](C)[C@H](NC(=O)[C@H](C)NC(=O)[C@H](CC(C)C)NC(=O)[C@H](CS)NC(=O)[C@H](CCCN=C(N)N)NC(=O)[C@H](C)NC(=O)[C@H](C)NC(=O)[C@H](CS)NC(=O)[C@@H](N)CC(C)C)C(=O)NCC(=O)N[C@@H](CCCN=C(N)N)C(=O)N[C@@H](CCCN=C(N)N)C(N)=O [LCAARCLAIGRR]
MIC [14]: 5.76 µM (≈ 7.49 µg/mL) | MIC (Staphylococcus aureus): > 49.1 µM | MIC (Escherichia coli JM109): 24.6 µM (≈ 32 µg/mL)

SMILES: CC[C@H](C)[C@H](NC(=O)[C@@H](NC(=O)[C@@H](N)CCCN=C(N)N)[C@@H](C)CC)C(=O)N[C@@H](CC(=O)O)C(=O)N[C@@H](CC(C)C)C(=O)N[C@@H](CC(C)C)C(=O)N[C@@H](C)C(=O)N[C@@H](CCCN=C(N)N)C(=O)N[C@H](C(=O)N[C@@H](CCCN=C(N)N)C(=O)N[C@@H](CCCN=C(N)N)C(=O)N1CCC[C@H]1C(=O)N[C@@H](CCC(N)=O)C(=O)N[C@@H](CCCCN)C(=O)N1CCC[C@H]1C(=O)N[C@@H](CCCCN)C(=O)N[C@@H](Cc1ccccc1)C(=O)N[C@H](C(=O)N[C@H](C(=O)N[C@H](C(=O)N[C@@H](Cc1c[nH]c2ccccc12)C(=O)N[C@H](C(=O)N[C@@H](CCCN=C(N)N)C(=O)O)C(C)C)C(C)C)[C@@H](C)O)C(C)C)C(C)C [RIIDLLARVRRPQKPKFVTVWVR]
MIC [30]: 1.56 µM (≈ 4.44 µg/mL) | MIC [21]: 1.56 µM (≈ 4.44 µg/mL) | MIC [23]: 3.12 µM (≈ 8.9 µg/mL) | MIC [24]: 1.56 µM (≈ 4.44 µg/mL) | MIC [28]: 3.12 µM (≈ 8.9 µg/mL) | MIC [31]: 1.56 µM (≈ 4.44 µg/mL)

More lines, now with the values ahead:

MIC [15]: 15 µM (≈ 23.2 µg/mL) | MIC [16]: 7 µM (≈ 10.8 µg/mL) | MIC [17]: 15 µM (≈ 23.2 µg/mL) | MIC [18]: 30 µM (≈ 46.3 µg/mL) | MIC [19]: 15 µM (≈ 23.2 µg/mL)
SMILES: CSCC[C@H](NC(=O)[C@H](CCCN=C(N)N)NC(=O)[C@H](Cc1c[nH]c2ccccc12)NC(=O)[C@H](CCC(N)=O)NC(=O)[C@H](Cc1c[nH]c2ccccc12)NC(=O)[C@H](CCCN=C(N)N)NC(=O)[C@@H](N)CCCN=C(N)N)C(=O)N[C@@H](CCCCN)C(=O)N[C@@H](CCCCN)C(=O)N[C@@H](CC(C)C)C(=O)NCC(=O)O [RRWQWRMKKLG]

MIC (Proteus vulgaris): 1.56 µM (≈ 3.01 µg/mL) | MIC [20]: ≥ 100 µM | MIC [21]: 0.78 µM (≈ 1.51 µg/mL) | MIC [22]: 1.56 µM (≈ 3.01 µg/mL) | MIC [23]: 12.5 µM (≈ 24.1 µg/mL) | MIC [24]: 1.56 µM (≈ 3.01 µg/mL) | MIC [25]: ≥ 100 µM | MIC [26]: ≥ 100 µM | MIC [27]: ≥ 100 µM | MIC [28]: 3.12 µM (≈ 6.03 µg/mL)
SMILES: CC[C@H](C)[C@H](NC(=O)[C@H](CCCCN)NC(=O)[C@H](CCCCN)NC(=O)[C@H](Cc1ccccc1)NC(=O)[C@@H](N)Cc1c[nH]c2ccccc12)C(=O)N1CCC[C@H]1C(=O)N[C@@H](CCCCN)C(=O)N[C@@H](Cc1ccccc1)C(=O)N[C@@H](CC(C)C)C(=O)N[C@@H](Cc1cnc[nH]1)C(=O)N[C@@H](CC(C)C)C(=O)N[C@@H](C)C(=O)N[C@@H](CCCCN)C(=O)N[C@@H](CCCCN)C(=O)N[C@@H](Cc1ccccc1)C(N)=O [WFKKIPKFLHLAKKF]

MIC [15]: 24 µM (≈ 47.1 µg/mL) | MIC [16]: 12 µM (≈ 23.5 µg/mL) | MIC [17]: 48 µM (≈ 94.2 µg/mL) | MIC [18]: 48 µM (≈ 94.2 µg/mL) | MIC [29]: 48 µM (≈ 94.2 µg/mL) | MIC [19]: ≥ 48 µM
SMILES: CSCC[C@H](NC(=O)[C@H](CCCN=C(N)N)NC(=O)[C@H](Cc1c[nH]c2ccccc12)NC(=O)[C@H](CCC(N)=O)NC(=O)[C@H](Cc1c[nH]c2ccccc12)NC(=O)[C@H](CCCN=C(N)N)NC(=O)[C@H](CCCN=C(N)N)NC(=O)[C@H](C)NC(=O)[C@H](CCCCN)NC(=O)[C@@H](N)Cc1ccccc1)C(=O)N[C@@H](CCCCN)C(=O)N[C@@H](CCCCN)C(=O)N[C@@H](CC(C)C)C(=O)NCC(=O)N[C@@H](C)C(=O)O [FKARRWQWRMKKLGA]
